Series [1] is described as follows: Dissolution of Rutin: precipitation observed on standing with Glycoside I. The format is physicochemical. The arrangement: key: ++: indicating the greatest degree of precipitation; +: precipitation was observed; -: indicating no observed precipitation. Conditions: 0.04 wt % rutin. The protocol:
(§1) Water (100 ml) containing 12 W/V% of granulated sugar and 0.3 W/V% of citric acid was poured into each of five test tubes (100 ml) No. 1 to 5, to which 0.4 ml of rutin (10 W/V%) solution in ethanol (equivalent to 0.04 g of rutin) was added. Immediately thereafter, mixed was a solution of the Glycoside I (13.4 W/V%) in ethanol in amounts of 0.024 ml, 0.032 ml, 0.04 ml and 0.05 ml respectively to the test tubes No. 2 to 5. These amounts were equivalent to 8.0 wt. %, 10.8 wt. %, 13.5 wt. % and 16.0 wt. %, respectively relative to the amount of rutin.
(§2) All of these mixtures including No. 1 to which the Glycoside I had not been added were transparent when observed immediately after mixing. After standing for 24 hours, some mixtures were recognized to have precipitation. Standing was continued for 14 days at room temperature in observing precipitation states of the mixtures. On completion of this standing, rutin concentration of each supernatant liquid of the mixtures was measured using high-speed liquid chromatography.
The "+" and "-" signs in Table 1 denote comparative amounts of precipitation of the rutin. The range extends from "++", indicating the greatest degree of precipitation, down to "-", indicating no observed precipitation.

A short description of series [2]: Dissolution of Rutin: rutin remaining in solution (supernatant, high-speed liquid chromatography). The format is physicochemical. Conditions: 13.5 wt. % of Glycoside I relative to rutin; standing 14 days at room temperature. The protocol: as §1, §2

The structures appear in SMILES notation.

As to `C[C@@H]1O[C@@H](OC[C@H]2O[C@@H](Oc3c(-c4ccc(O)c(O)c4)oc4cc(O)cc(O)c4c3=O)[C@H](O)[C@@H](O)[C@@H]2O)[C@H](O)[C@H](O)[C@H]1O` [Rutin], the “Precipitation Observed” value was “+ +” in series [1] (No. 1, Glycoside I 0 wt % relative to rutin, 1st day); “+ +” in series [1] (No. 1, Glycoside I 0 wt % relative to rutin, 3rd day); “+ +” in series [1] (No. 1, Glycoside I 0 wt % relative to rutin, 6th day); “+ +” in series [1] (No. 1, Glycoside I 0 wt % relative to rutin, 14th day); “+” in series [1] (No. 2, Glycoside I 8.0 wt % relative to rutin, 1st day); “+” in series [1] (No. 2, Glycoside I 8.0 wt % relative to rutin, 3rd day). For the same molecule, the “Precipitation Observed” value is given as “+” in series [1] (No. 2, Glycoside I 8.0 wt % relative to rutin, 6th day) and “+” in series [1] (No. 2, Glycoside I 8.0 wt % relative to rutin, 14th day). For the same molecule, the “rutin stably dissolved in water” value in series [2] is listed as “at least 0.04 wt. %”.

Source of the values: US5122381A, “Composition and process for dissolving a sparingly water-soluble flavonoid” (San-Ei Chemical Industries, Ltd., priority 1989, dated 1992).
